Experimental data taken from PubChem BioAssay (NCI).
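1) Cells in 96-well plates. 2) Compound, 48 h, 5 concentrations. 3) Linear interpolation between surrounding doses. 4) Unreached endpoint = highest concentration. At the GI50, growth is halved. The concentration for full growth arrest is given as TGI.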

system: HS 578T breast; test: NCI tumour cell line growth inhibition, 48 h

Q: Which GI50 does the source give for COC(=O)/C=C/c1cc(OC(C)=O)c2c(c1)[C@@H](C(=O)OC)[C@H](c1ccc(OC(C)=O)c(OC(C)=O)c1)O2 here?
A: The GI50 was 0.0343 µM.

Q: What about the TGI of the same compound?
A: The TGI was 17.7 µM.

Q: For Nc1nc2[nH]cc(CCc3ccc(C(=O)N[C@@H](CCC(=O)O)C(=O)O)cc3)c2c(=O)[nH]1, which TGI is on record?
A: Its TGI is > 100 µM.

Q: Fc1cc(-c2nnc3n2N=C(c2ccc(Cl)cc2)CS3)c(Cl)cc1Cl was tested. Which GI50 did it give?
A: The GI50 was 22.7 µM.

Q: And the TGI?
A: Its TGI is 51.5 µM.

Q: What does the source list for CN1CCN(C(=O)COc2ccc(C34CC5CC(CC(C5)C3)C4)cc2)CC1?
A: GI50: 15.6 µM; TGI: 45.6 µM

Q: For COc1ccccc1NC(=O)c1cc2cc(Br)ccc2cc1O, which GI50 is on record?
A: Its GI50 is 2.61 µM.

Q: CC(=O)OCc1ccc2c(c1)C(O)NC(=O)O2 (stereo unspecified) was tested. Which TGI did it give?
A: The TGI was > 100 µM.

Q: For O=C(Nc1nn2c(-c3cc(C(F)(F)F)cc(C(F)(F)F)c3)nnc2s1)C1CCCC1, which GI50 is on record?
A: Its GI50 is 0.706 µM.

Q: And the TGI?
A: The TGI was > 100 µM.

Q: COC(=O)[C@]12CC[C@@H](C)[C@H](C)[C@@H]1C1=CC[C@@H]3[C@@]4(C)C[C@@H](O)[C@H](O)[C@@](C)(CO)[C@@H]4[C@H](O)C[C@@]3(C)[C@]1(C)CC2 was tested. Which GI50 did it give?
A: The GI50 was 18.5 µM.

Q: What about the TGI of the same compound?
A: The TGI was 45.8 µM.

Q: COCCn1cc(-c2nc(-c3cc4cccnc4[nH]3)cs2)c2cc(OC)ccc21 was tested. Which GI50 did it give?
A: Its GI50 is 1.99 µM.

Q: What about the TGI of the same compound?
A: Its TGI is 6.78 µM.

Q: Which GI50 does the source give for NCCNCCNCCN here?
A: The GI50 was > 100 µM.

Q: What about the TGI of the same compound?
A: The TGI was > 100 µM.

system: IGROV1 ovarian; test: NCI tumour cell line growth inhibition, 48 h

Q: What does the source list for COC(=O)/C=C/c1cc(OC(C)=O)c2c(c1)[C@@H](C(=O)OC)[C@H](c1ccc(OC(C)=O)c(OC(C)=O)c1)O2?
A: GI50: 0.176 µM; TGI: 38.3 µM

Q: For Nc1nc2[nH]cc(CCc3ccc(C(=O)N[C@@H](CCC(=O)O)C(=O)O)cc3)c2c(=O)[nH]1, which TGI is on record?
A: The TGI was > 100 µM.

Q: For Fc1cc(-c2nnc3n2N=C(c2ccc(Cl)cc2)CS3)c(Cl)cc1Cl, which GI50 is on record?
A: The GI50 was 4.25 µM.

Q: What about the TGI of the same compound?
A: The TGI was > 37.6 µM.

Q: Which results are given for CN1CCN(C(=O)COc2ccc(C34CC5CC(CC(C5)C3)C4)cc2)CC1?
A: GI50: 15 µM; TGI: 39.2 µM

Q: What does the source list for COc1ccccc1NC(=O)c1cc2cc(Br)ccc2cc1O?
A: GI50: 1.6 µM; TGI: 6.56 µM

Q: CC(=O)OCc1ccc2c(c1)C(O)NC(=O)O2 (stereo unspecified) was tested. Which TGI did it give?
A: The TGI was > 100 µM.

Q: How did the GI50 turn out when O=C(Nc1nn2c(-c3cc(C(F)(F)F)cc(C(F)(F)F)c3)nnc2s1)C1CCCC1 was run?
A: Its GI50 is 0.553 µM.

Q: And the TGI?
A: The TGI was > 100 µM.

Q: What does the source list for COC(=O)[C@]12CC[C@@H](C)[C@H](C)[C@@H]1C1=CC[C@@H]3[C@@]4(C)C[C@@H](O)[C@H](O)[C@@](C)(CO)[C@@H]4[C@H](O)C[C@@]3(C)[C@]1(C)CC2?
A: GI50: 12.4 µM; TGI: 29.4 µM

Q: Which results are given for COCCn1cc(-c2nc(-c3cc4cccnc4[nH]3)cs2)c2cc(OC)ccc21?
A: GI50: 0.81 µM; TGI: > 34.5 µM

Q: How did the GI50 turn out when NCCNCCNCCN was run?
A: Its GI50 is > 100 µM.

Q: And the TGI?
A: The TGI was > 100 µM.

system: MDA-MB-231 breast; test: NCI tumour cell line growth inhibition, 48 h

Q: Which GI50 does the source give for COC(=O)/C=C/c1cc(OC(C)=O)c2c(c1)[C@@H](C(=O)OC)[C@H](c1ccc(OC(C)=O)c(OC(C)=O)c1)O2 here?
A: The GI50 was 0.305 µM.

Q: What about the TGI of the same compound?
A: Its TGI is 34.4 µM.

Q: With Nc1nc2[nH]cc(CCc3ccc(C(=O)N[C@@H](CCC(=O)O)C(=O)O)cc3)c2c(=O)[nH]1 as the compound, how does the GI50 read?
A: The GI50 was > 100 µM.

Q: And the TGI?
A: Its TGI is > 100 µM.

Q: Fc1cc(-c2nnc3n2N=C(c2ccc(Cl)cc2)CS3)c(Cl)cc1Cl was tested. Which GI50 did it give?
A: The GI50 was 6.57 µM.

Q: And the TGI?
A: The TGI was 18.2 µM.

Q: For CN1CCN(C(=O)COc2ccc(C34CC5CC(CC(C5)C3)C4)cc2)CC1, which GI50 is on record?
A: Its GI50 is 13 µM.

Q: What about the TGI of the same compound?
A: The TGI was 27.8 µM.

Q: Which GI50 does the source give for COc1ccccc1NC(=O)c1cc2cc(Br)ccc2cc1O here?
A: The GI50 was 2.05 µM.

Q: What about the TGI of the same compound?
A: Its TGI is 5.69 µM.

Q: With CC(=O)OCc1ccc2c(c1)C(O)NC(=O)O2 (stereo unspecified) as the compound, how does the TGI read?
A: The TGI was > 100 µM.

Q: For O=C(Nc1nn2c(-c3cc(C(F)(F)F)cc(C(F)(F)F)c3)nnc2s1)C1CCCC1, which GI50 is on record?
A: Its GI50 is 1.12 µM.

Q: And the TGI?
A: The TGI was 4.01 µM.

Q: Which GI50 does the source give for COC(=O)[C@]12CC[C@@H](C)[C@H](C)[C@@H]1C1=CC[C@@H]3[C@@]4(C)C[C@@H](O)[C@H](O)[C@@](C)(CO)[C@@H]4[C@H](O)C[C@@]3(C)[C@]1(C)CC2 here?
A: The GI50 was 13 µM.

Q: What about the TGI of the same compound?
A: Its TGI is 29.8 µM.

Q: Which results are given for COCCn1cc(-c2nc(-c3cc4cccnc4[nH]3)cs2)c2cc(OC)ccc21?
A: GI50: 1.76 µM; TGI: > 79.9 µM

Q: Which GI50 does the source give for NCCNCCNCCN here?
A: The GI50 was > 100 µM.

Q: What about the TGI of the same compound?
A: The TGI was > 100 µM.

system: SF-295 CNS; test: NCI tumour cell line growth inhibition, 48 h

Q: Which GI50 does the source give for COC(=O)/C=C/c1cc(OC(C)=O)c2c(c1)[C@@H](C(=O)OC)[C@H](c1ccc(OC(C)=O)c(OC(C)=O)c1)O2 here?
A: The GI50 was 0.285 µM.

Q: And the TGI?
A: Its TGI is 11.4 µM.

Q: For Nc1nc2[nH]cc(CCc3ccc(C(=O)N[C@@H](CCC(=O)O)C(=O)O)cc3)c2c(=O)[nH]1, which GI50 is on record?
A: The GI50 was 0.606 µM.

Q: And the TGI?
A: The TGI was > 100 µM.

Q: Which results are given for Fc1cc(-c2nnc3n2N=C(c2ccc(Cl)cc2)CS3)c(Cl)cc1Cl?
A: GI50: 17 µM; TGI: 34.7 µM

Q: What does the source list for CN1CCN(C(=O)COc2ccc(C34CC5CC(CC(C5)C3)C4)cc2)CC1?
A: GI50: 13.5 µM; TGI: 27.8 µM

Q: Which results are given for COc1ccccc1NC(=O)c1cc2cc(Br)ccc2cc1O?
A: GI50: 2.31 µM; TGI: 7.59 µM

Q: Which TGI does the source give for CC(=O)OCc1ccc2c(c1)C(O)NC(=O)O2 (stereo unspecified) here?
A: Its TGI is > 100 µM.

Q: For O=C(Nc1nn2c(-c3cc(C(F)(F)F)cc(C(F)(F)F)c3)nnc2s1)C1CCCC1, which GI50 is on record?
A: Its GI50 is 0.286 µM.

Q: What about the TGI of the same compound?
A: Its TGI is 2.01 µM.

Q: COC(=O)[C@]12CC[C@@H](C)[C@H](C)[C@@H]1C1=CC[C@@H]3[C@@]4(C)C[C@@H](O)[C@H](O)[C@@](C)(CO)[C@@H]4[C@H](O)C[C@@]3(C)[C@]1(C)CC2 was tested. Which GI50 did it give?
A: Its GI50 is 15 µM.

Q: And the TGI?
A: The TGI was 35.4 µM.

Q: COCCn1cc(-c2nc(-c3cc4cccnc4[nH]3)cs2)c2cc(OC)ccc21 was tested. Which GI50 did it give?
A: The GI50 was 2.24 µM.

Q: And the TGI?
A: The TGI was 6.54 µM.

Q: How did the GI50 turn out when NCCNCCNCCN was run?
A: The GI50 was > 100 µM.

Q: What about the TGI of the same compound?
A: The TGI was > 100 µM.

system: SF-539 CNS; test: NCI tumour cell line growth inhibition, 48 h

Q: What does the source list for COC(=O)/C=C/c1cc(OC(C)=O)c2c(c1)[C@@H](C(=O)OC)[C@H](c1ccc(OC(C)=O)c(OC(C)=O)c1)O2?
A: GI50: 0.0344 µM; TGI: 0.305 µM

Q: Nc1nc2[nH]cc(CCc3ccc(C(=O)N[C@@H](CCC(=O)O)C(=O)O)cc3)c2c(=O)[nH]1 was tested. Which GI50 did it give?
A: Its GI50 is 0.0774 µM.

Q: How did the GI50 turn out when Fc1cc(-c2nnc3n2N=C(c2ccc(Cl)cc2)CS3)c(Cl)cc1Cl was run?
A: Its GI50 is 3.35 µM.

Q: And the TGI?
A: Its TGI is 11.1 µM.

Q: CN1CCN(C(=O)COc2ccc(C34CC5CC(CC(C5)C3)C4)cc2)CC1 was tested. Which GI50 did it give?
A: Its GI50 is 12.7 µM.

Q: And the TGI?
A: The TGI was 25.9 µM.

Q: COc1ccccc1NC(=O)c1cc2cc(Br)ccc2cc1O was tested. Which GI50 did it give?
A: The GI50 was 2.34 µM.

Q: What about the TGI of the same compound?
A: The TGI was 7.34 µM.

Q: CC(=O)OCc1ccc2c(c1)C(O)NC(=O)O2 (stereo unspecified) was tested. Which TGI did it give?
A: The TGI was > 100 µM.

Q: What does the source list for O=C(Nc1nn2c(-c3cc(C(F)(F)F)cc(C(F)(F)F)c3)nnc2s1)C1CCCC1?
A: GI50: 0.981 µM; TGI: > 100 µM

Q: Which GI50 does the source give for COC(=O)[C@]12CC[C@@H](C)[C@H](C)[C@@H]1C1=CC[C@@H]3[C@@]4(C)C[C@@H](O)[C@H](O)[C@@](C)(CO)[C@@H]4[C@H](O)C[C@@]3(C)[C@]1(C)CC2 here?
A: The GI50 was 14 µM.

Q: What about the TGI of the same compound?
A: The TGI was 29 µM.

Q: Which GI50 does the source give for COCCn1cc(-c2nc(-c3cc4cccnc4[nH]3)cs2)c2cc(OC)ccc21 here?
A: The GI50 was 3.39 µM.

Q: What about the TGI of the same compound?
A: The TGI was 42 µM.

Q: With NCCNCCNCCN as the compound, how does the GI50 read?
A: Its GI50 is > 100 µM.

Q: What about the TGI of the same compound?
A: The TGI was > 100 µM.
